The source of these data is ChEMBL document CHEMBL2040788, “Expanded Utility of the β-Glucuronide Linker: ADCs That Deliver Phenolic Cytotoxic Agents” (ACS Med Chem Lett, 2010).

Each structure is given as a SMILES string.

Data set [1] has as its system CAKI-1. Briefly: Cytotoxicity against CD30 deficient human Caki1 cells expressing CD70 after 96 hrs. Particulars: CAKI-1, 96 h. Format: functional, cell-based.
A short description of data set [2]: Chemical stability of the compound. Format: physicochemical.
Data set [3] in a line: Cytotoxicity against CD70 deficient human L540cy cells expressing CD30 after 96 hrs. The format is functional, cell-based.

The IC50 is the concentration that gives 50% inhibition. In the case of `C=C(C)CC(OC)[C@H](O)C(=O)N[C@@H](OC)[C@@H]1C[C@@H](O)C(C)(C)[C@@H](C[C@H](O)[C@@H](C)[C@H]2Cc3c(C)c(O)cc(O)c3C(=O)O2)O1` (stereo partly drawn) [IRCINIASTATIN A], the results for the IC50 in data set [1] and in data set [3] were 0.3 nM and 0.7 nM, respectively. Moreover, the Stability result in data set [2] is listed as “Stable”.
